Reference: ChEMBL document CHEMBL4507261, “Data for DCP probe A-192621” (2021)
Calls of active or inactive are those of the source. The rule behind the calls is not given here.

Columns and labels:
[1] = molecular target: Beta-3 adrenergic receptor (Homo sapiens) (UniProt P13945); conditions: Compound concentration 10.0 uM
[2] = molecular target: T1, Muscarinic acetylcholine receptor M5 (Homo sapiens) (UniProt P08912); conditions: Compound concentration 10.0 uM
T1 sequence (whole entry): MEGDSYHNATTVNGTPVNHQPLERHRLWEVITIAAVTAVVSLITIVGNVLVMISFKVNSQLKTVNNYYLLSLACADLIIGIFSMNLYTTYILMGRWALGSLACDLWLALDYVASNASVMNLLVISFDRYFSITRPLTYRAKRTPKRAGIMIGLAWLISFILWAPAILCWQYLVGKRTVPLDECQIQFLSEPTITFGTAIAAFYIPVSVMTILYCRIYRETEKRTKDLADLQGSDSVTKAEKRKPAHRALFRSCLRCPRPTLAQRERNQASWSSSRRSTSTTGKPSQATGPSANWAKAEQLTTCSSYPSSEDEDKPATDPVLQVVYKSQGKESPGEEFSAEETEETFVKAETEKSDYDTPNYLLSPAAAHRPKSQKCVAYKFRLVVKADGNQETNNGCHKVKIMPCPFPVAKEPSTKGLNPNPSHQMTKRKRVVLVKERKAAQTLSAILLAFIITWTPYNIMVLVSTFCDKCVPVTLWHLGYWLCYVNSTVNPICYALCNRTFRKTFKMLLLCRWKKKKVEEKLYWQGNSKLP

[3] = molecular target: Histamine H4 receptor (Homo sapiens) (UniProt Q9H3N8); conditions: Compound concentration 10.0 uM
[4] = molecular target: T2, Alpha-2A adrenergic receptor (Homo sapiens) (UniProt P08913); conditions: Compound concentration 10.0 uM
T2 sequence (whole entry): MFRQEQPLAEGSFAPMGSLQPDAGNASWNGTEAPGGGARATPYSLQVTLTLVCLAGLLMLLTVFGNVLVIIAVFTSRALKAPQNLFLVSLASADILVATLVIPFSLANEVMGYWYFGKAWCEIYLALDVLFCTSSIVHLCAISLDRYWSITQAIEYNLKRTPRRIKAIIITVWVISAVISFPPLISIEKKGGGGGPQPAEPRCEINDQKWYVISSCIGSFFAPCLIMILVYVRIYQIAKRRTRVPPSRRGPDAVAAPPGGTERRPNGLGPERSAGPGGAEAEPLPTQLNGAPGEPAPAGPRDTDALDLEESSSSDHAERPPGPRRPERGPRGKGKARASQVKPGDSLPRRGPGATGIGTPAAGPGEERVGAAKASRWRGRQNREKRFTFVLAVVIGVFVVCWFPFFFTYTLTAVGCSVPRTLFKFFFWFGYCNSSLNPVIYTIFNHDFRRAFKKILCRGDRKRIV

[5] = molecular target: Alpha-1D adrenergic receptor (Homo sapiens) (UniProt P25100); conditions: Compound concentration 10.0 uM
[6] = molecular target: Kappa-type opioid receptor (Homo sapiens) (UniProt P41145); conditions: Compound concentration 10.0 uM
[7] = molecular target: T3, Endothelin receptor type B (Homo sapiens, UniProt P24530); assay: Eurofins cellular functional assay - Antagonist (EDNRB)
[8] = molecular target: Sodium-dependent serotonin transporter (Homo sapiens) (UniProt P31645); conditions: Compound concentration 10.0 uM
[9] = molecular target: 5-hydroxytryptamine receptor 2B (Homo sapiens) (UniProt P41595); conditions: Compound concentration 10.0 uM
[10] = molecular target: Sigma non-opioid intracellular receptor 1 (Homo sapiens) (UniProt Q99720); conditions: Compound concentration 10.0 uM
Rattus norvegicus = species on record: Rattus norvegicus; conditions: Compound concentration 10.0 uM
[11] = molecular target: 5-hydroxytryptamine receptor 1B (Homo sapiens) (UniProt P28222); conditions: Compound concentration 10.0 uM
[12] = molecular target: Muscarinic acetylcholine receptor M3 (Homo sapiens) (UniProt P20309); conditions: Compound concentration 10.0 uM
[13] = molecular target: T3, Endothelin receptor type B; assay: EDNRB- dependent phosphatidylinositol hydrolysis assay; type: functional
[14] = molecular target: D(3) dopamine receptor (Homo sapiens) (UniProt P35462); conditions: Compound concentration 10.0 uM
[15] = molecular target: 5-hydroxytryptamine receptor 7 (Homo sapiens) (UniProt P34969); conditions: Compound concentration 10.0 uM
[16] = molecular target: Histamine H1 receptor (Homo sapiens) (UniProt P35367); conditions: Compound concentration 10.0 uM
[17] = molecular target: T4, Muscarinic acetylcholine receptor M2 (Homo sapiens) (UniProt P08172); conditions: Compound concentration 10.0 uM
T4 sequence (whole entry): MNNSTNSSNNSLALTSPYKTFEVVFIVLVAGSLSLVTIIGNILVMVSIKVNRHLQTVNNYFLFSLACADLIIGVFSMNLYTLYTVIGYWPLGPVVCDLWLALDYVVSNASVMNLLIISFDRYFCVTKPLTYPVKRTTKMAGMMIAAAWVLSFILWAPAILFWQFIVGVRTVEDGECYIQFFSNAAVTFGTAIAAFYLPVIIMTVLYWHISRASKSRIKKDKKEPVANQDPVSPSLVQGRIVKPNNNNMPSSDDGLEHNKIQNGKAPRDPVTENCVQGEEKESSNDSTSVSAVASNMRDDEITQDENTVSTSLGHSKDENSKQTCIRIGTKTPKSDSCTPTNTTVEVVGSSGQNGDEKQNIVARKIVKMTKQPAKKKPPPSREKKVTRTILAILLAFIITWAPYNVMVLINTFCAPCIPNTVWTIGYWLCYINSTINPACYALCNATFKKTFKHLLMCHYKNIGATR

[18] = molecular target: Delta-type opioid receptor (Homo sapiens) (UniProt P41143); conditions: Compound concentration 10.0 uM
[19] = molecular target: T5, 5-hydroxytryptamine receptor 2C (Homo sapiens) (UniProt P28335); conditions: Compound concentration 10.0 uM
T5 sequence (whole entry): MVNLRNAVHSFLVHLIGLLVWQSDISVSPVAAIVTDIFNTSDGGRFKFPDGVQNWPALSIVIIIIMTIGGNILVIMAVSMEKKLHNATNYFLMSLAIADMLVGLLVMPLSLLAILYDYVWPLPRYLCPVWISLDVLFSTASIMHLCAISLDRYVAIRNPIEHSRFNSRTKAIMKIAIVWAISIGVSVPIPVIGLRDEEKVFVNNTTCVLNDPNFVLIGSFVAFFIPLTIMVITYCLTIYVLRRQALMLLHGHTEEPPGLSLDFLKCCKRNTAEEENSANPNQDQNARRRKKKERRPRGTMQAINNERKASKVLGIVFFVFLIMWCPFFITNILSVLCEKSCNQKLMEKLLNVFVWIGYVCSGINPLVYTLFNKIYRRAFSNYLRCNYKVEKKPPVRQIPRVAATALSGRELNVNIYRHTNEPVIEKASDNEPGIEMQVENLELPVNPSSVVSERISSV

[20] = molecular target: 5-hydroxytryptamine receptor 2A (Homo sapiens) (UniProt P28223); conditions: Compound concentration 10.0 uM
5-hydroxytryptamine receptor 2A (Homo sapiens), sequence (P28223 whole entry): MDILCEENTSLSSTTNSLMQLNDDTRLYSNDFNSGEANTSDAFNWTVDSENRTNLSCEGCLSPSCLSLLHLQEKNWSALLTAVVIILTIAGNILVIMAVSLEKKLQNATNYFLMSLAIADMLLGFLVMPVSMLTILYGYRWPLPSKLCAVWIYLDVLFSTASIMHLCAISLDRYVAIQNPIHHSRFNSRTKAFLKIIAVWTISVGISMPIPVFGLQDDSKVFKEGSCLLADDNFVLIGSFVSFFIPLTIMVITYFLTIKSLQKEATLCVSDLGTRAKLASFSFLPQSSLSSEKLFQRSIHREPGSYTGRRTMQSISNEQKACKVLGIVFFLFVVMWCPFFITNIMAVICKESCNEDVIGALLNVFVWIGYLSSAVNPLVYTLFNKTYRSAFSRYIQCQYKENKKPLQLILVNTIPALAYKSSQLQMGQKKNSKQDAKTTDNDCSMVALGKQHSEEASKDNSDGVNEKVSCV

T3 sequence (P24530 whole entry): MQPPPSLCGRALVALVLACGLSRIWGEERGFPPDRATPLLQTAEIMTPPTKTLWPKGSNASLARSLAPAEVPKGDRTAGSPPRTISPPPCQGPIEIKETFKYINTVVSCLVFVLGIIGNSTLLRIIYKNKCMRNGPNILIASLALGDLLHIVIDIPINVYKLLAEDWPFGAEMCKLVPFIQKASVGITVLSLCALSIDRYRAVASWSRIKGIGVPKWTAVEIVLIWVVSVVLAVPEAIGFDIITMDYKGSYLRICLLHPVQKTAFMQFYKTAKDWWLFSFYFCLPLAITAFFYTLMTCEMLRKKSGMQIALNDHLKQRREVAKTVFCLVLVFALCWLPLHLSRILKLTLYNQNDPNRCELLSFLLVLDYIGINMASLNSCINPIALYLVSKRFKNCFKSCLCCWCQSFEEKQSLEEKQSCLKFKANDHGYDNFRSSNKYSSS
Muscarinic acetylcholine receptor M3 (Homo sapiens), sequence (P20309 whole entry, looked up): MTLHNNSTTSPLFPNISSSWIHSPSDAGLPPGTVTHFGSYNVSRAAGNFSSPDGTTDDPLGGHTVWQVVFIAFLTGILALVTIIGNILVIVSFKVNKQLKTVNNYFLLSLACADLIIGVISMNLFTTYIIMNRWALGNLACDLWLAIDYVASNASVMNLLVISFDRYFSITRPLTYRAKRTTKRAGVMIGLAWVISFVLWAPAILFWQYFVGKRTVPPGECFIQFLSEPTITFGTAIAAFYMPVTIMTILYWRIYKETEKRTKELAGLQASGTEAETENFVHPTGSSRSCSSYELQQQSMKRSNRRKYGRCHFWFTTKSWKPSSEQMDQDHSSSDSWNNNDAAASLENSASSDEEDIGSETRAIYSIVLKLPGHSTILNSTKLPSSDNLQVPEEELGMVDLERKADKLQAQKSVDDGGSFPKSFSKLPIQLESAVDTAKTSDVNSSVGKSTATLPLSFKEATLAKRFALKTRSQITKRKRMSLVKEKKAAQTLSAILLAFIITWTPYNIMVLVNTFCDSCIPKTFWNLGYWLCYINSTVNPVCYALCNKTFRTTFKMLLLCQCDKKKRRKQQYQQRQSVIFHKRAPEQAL
Histamine H4 receptor (Homo sapiens), sequence (Q9H3N8 whole entry): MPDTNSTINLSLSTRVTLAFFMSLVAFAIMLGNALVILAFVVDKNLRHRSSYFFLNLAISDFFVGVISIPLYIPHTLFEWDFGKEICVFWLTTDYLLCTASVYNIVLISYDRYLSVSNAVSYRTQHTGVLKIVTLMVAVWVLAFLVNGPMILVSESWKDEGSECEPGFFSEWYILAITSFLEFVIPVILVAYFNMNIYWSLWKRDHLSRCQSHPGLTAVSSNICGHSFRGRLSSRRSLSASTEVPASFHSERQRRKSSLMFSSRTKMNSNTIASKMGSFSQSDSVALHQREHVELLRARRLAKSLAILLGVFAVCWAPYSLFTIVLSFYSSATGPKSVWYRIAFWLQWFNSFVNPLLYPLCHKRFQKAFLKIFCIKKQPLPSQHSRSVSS
Sigma non-opioid intracellular receptor 1 (Homo sapiens), sequence (Q99720 whole entry): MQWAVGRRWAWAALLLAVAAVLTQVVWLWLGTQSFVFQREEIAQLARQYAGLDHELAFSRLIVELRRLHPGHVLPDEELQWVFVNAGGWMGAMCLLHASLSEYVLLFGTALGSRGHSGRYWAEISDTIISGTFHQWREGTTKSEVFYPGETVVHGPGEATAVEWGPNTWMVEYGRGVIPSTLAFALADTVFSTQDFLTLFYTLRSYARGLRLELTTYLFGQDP
Delta-type opioid receptor (Homo sapiens), sequence (P41143 whole entry): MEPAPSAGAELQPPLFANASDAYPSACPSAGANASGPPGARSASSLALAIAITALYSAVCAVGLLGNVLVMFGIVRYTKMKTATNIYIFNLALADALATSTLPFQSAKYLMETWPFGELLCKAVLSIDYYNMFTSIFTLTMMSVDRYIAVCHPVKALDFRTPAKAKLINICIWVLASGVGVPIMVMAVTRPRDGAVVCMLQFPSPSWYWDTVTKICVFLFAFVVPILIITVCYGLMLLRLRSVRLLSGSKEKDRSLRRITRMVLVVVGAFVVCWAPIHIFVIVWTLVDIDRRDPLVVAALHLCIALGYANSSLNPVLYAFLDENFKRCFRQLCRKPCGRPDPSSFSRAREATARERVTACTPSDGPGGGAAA
Histamine H1 receptor (Homo sapiens), sequence (P35367 whole entry): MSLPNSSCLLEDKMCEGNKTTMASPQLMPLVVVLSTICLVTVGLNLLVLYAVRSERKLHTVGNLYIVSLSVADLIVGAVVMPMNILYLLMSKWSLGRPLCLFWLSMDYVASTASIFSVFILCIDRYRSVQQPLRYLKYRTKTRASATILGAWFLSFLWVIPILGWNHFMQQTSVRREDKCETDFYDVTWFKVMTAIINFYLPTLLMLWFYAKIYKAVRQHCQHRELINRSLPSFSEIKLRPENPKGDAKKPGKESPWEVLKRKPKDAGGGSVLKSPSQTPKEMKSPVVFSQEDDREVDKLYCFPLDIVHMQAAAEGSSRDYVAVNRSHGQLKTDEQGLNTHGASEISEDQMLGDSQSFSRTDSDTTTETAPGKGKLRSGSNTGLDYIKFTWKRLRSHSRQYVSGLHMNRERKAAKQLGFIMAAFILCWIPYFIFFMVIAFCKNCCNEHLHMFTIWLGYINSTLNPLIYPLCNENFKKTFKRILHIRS
5-hydroxytryptamine receptor 2B (Homo sapiens), sequence (P41595 whole entry): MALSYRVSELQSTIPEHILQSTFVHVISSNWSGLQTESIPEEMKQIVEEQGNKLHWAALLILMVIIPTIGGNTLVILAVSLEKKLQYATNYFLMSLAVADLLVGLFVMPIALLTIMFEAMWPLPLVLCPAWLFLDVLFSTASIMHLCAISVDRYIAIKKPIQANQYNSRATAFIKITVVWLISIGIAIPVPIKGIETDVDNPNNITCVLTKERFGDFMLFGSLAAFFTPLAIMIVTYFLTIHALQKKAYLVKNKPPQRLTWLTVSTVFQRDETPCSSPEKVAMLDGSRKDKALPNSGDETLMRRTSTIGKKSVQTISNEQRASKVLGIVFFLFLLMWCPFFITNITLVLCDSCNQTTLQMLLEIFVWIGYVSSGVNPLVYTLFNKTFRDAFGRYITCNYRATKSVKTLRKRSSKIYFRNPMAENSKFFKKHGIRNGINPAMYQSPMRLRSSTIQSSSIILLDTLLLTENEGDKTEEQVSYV
Alpha-1D adrenergic receptor (Homo sapiens), sequence (P25100 whole entry): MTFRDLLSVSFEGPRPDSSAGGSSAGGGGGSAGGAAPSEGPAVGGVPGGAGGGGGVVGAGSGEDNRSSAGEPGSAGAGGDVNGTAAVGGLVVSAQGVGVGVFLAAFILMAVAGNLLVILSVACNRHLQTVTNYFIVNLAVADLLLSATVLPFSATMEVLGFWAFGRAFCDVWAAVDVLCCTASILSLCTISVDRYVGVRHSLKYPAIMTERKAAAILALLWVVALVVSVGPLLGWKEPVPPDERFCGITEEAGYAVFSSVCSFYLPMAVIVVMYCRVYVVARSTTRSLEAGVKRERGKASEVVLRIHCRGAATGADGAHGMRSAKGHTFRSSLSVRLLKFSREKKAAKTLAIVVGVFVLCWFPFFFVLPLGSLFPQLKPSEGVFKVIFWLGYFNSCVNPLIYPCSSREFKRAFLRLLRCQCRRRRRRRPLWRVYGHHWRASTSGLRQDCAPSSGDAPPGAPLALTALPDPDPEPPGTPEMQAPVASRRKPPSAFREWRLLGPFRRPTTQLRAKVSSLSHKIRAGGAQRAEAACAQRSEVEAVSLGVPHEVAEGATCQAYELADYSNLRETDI
5-hydroxytryptamine receptor 7 (Homo sapiens), sequence (P34969 whole entry): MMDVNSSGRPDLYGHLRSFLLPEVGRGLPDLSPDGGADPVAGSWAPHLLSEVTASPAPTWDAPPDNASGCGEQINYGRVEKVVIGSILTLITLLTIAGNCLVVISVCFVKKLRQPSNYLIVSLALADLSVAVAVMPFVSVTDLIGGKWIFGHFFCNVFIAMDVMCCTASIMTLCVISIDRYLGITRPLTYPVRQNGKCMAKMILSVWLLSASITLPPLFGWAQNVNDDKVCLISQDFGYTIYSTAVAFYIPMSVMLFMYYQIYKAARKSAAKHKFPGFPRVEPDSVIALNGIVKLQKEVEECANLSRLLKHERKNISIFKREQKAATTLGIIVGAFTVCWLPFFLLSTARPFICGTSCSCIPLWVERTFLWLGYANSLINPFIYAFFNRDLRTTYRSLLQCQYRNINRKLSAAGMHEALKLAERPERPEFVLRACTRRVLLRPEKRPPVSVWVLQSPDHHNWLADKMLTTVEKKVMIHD
Beta-3 adrenergic receptor (Homo sapiens), sequence (P13945 whole entry, looked up): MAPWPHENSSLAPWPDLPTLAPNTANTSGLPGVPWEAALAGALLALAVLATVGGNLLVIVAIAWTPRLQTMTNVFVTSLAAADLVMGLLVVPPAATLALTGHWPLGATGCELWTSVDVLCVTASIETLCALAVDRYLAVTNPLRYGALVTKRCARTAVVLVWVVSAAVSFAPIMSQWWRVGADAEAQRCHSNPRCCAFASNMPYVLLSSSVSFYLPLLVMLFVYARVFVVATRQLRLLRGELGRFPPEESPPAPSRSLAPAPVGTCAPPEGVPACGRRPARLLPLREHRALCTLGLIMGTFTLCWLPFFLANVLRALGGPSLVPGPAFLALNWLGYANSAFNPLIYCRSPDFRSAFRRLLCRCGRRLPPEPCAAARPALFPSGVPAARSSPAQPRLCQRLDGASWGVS

## CCCOc1ccc([C@H]2[C@H](C(=O)O)[C@@H](c3ccc4c(c3)OCO4)CN2CC(=O)Nc2c(CC)cccc2CC)cc1 [A-192621]
[1]
  inhibition: 13.3%
[2]
  inhibition: 27.3%
[3]
  inhibition: 7.94%
[4]
  inhibition: 9.55%
[5]
  inhibition: -1.79%
[6]
  inhibition: 35.3%
[7]
  IC50: 6.5 nM (active)
[8]
  inhibition: 10.6%
[9]
  inhibition: 12.8%
[10]
  inhibition: 4.29%
Rattus norvegicus
  inhibition: 16.5%
[11]
  inhibition: 4.31%
[12]
  inhibition: -5.06%
[13]
  IC50: 0.8 nM (active)
[14]
  inhibition: -5.43%
[15]
  inhibition: -3.72%
[16]
  inhibition: 36%
[17]
  inhibition: -5.3%
[18]
  inhibition: 9.89%
[19]
  inhibition: -5.44%
[20]
  inhibition: 4.84%
